From patent US9284362B2, “α/β-peptide mimics of Z-domain peptides” (Wisconsin Alumni Research Foundation, priority 2014, dated 2016)
“Also recorded” adds a separate entry of the source. Each block holds one compound with its values, some of them ahead of it. *1 amine or outer side, *2 acyl side, *3 side chain or, on linkers, in order; H or OH if unused. Where a SMILES comes first, the peptide text is derived from it. Where no end group is shown, it is not given here. [ ]: non-standard residue; d: D form. The star is where a group is joined. ξ: configuration not given here. ξ(4-Aminopyrrolidine-3-CO) = O=C(C1CNCC1N[*:1])[*:2]; NH(1S,2S-2-CONH2-cPent) = NC(=O)[C@H]1CCC[C@@H]1N*; ACPC(1S,2S) = N[C@H]1CCC[C@@H]1C(=O)*; X1 = O=C([C@H]1CCC[C@@H]1N[*:1])[*:2]; X2 = O=C([C@H]1CNC[C@@H]1N[*:1])[*:2]; Aib = CC(C)(N)C(=O)O

Assays:
VEGF = biological target: T1, VEGF (Homo sapiens, UniProt P15692); assay: VEGF competition fluorescence polarization (FP) assay; type: binding; details: for binding to VEGF (in words): competition FP assay
T1 construct: made in house
T1 sequence (P15692 27-191 isoform P15692-4): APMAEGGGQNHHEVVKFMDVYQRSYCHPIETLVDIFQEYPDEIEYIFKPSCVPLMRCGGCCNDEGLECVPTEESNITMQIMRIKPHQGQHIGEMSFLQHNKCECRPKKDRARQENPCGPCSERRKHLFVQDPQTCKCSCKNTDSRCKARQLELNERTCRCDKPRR
Experimental: Inhibitors of the VEGF/VEGFR interaction were evaluated using VEGF direct binding and competition fluorescence polarization (FP) assays, as previously described (Peterson, K. J. et al., Anal. Biochem. 2008, 378, 8-14), but using a modified tracer. […] DMSO stock solutions of α- and α/β-peptide inhibitors were prepared and concentration determined by UV absorbance at 280 nm. Extinction coefficients for α- and α/β-peptides were calculated based on the number of tryptophans (ε280=5690 M^−1 cm^−1), tyrosines (ε280=1280 M^−1 cm^−1), and cystines (ε280=120 M^−1 cm^−1) in each primary sequence (Gill, S. C, et al. Anal. Biochem. 1989, 182, 319-326). […] Each condition was run in duplicate in each assay. Inhibition constants (Ki) were determined from FP data using methods described for a competitive binding model with GraphPad Prism 4.0 (Peterson, K. J. et al., Anal. Biochem. 2008, 378, 8-14). Reported Ki values are representative values from multiple replicate assays.
FP assays were only run once to test binding affinity.

[1] = tested on: VEGF-induced proliferation of human umbilical vein endothelial cells (HUVECs); assay: HUVEC proliferation assay (VEGF165-induced, Click-iT EdU); type: cell-based; details: 50 μM peptide, 10 ng/mL VEGF165
Experimental: Human umbilical vein endothelial cells (HUVECs) (Lonza, Basel, Switzerland, catalog no. CC2519) were cultured using Medium 199 (M199) (Mediatech, Herndon, Va., USA; 50-050-PB) supplemented with penicillin/steptomycin (HyClone-brand, Thermo Fisher Scientific, Herndon, Va., USA; SV30010) and EGM-2 (Lonza, CC4176) at 37° C. in 5% CO2. Cells were grown to 60-80% confluence and then serum-starved in M199 with 2% cosmic calf serum (CCS) (HyClone-brand, SH30087) overnight. […] Filter sterilized stock solutions of α- or α/β-peptide in PBS were made at a concentration of 200 μM, as determined by UV absorbance. Appropriate dilutions of α- or α/β-peptide were made with PBS, and the resulting solutions were premixed with recombinant human VEGF165 (R&D Systems, 293-VE-010) or recombinant human FGF basic (FGF-2) (R&D Systems, a wholly owned subsidiary of TECHNE Corporation, Minneapolis, Minn., USA; 233-FB-025) in M199/2% CCS and incubated at room temperature for 1 hour. […] Relative cell proliferation was quantified using the “Click-iT”-brand EdU Alexa Flour 488 Assay (Life Technologies, C10337). […] EdU incorporation was detected using Life Technologies' assay protocol. […] Images were analyzed using NIS-Elements AR Imaging Software (Nikon Instruments, Inc., Melville, N.Y., USA) to count the number of proliferating cells (EdU stained) and total number of cells (Hoechst stained). […]

[2] = biological target: T2, TNFα (binding to immobilized TNFR1) (Homo sapiens, UniProt P01375); assay: TNFα/TNFR competition ELISA; details: Table 14; read-out: TNFa-TNFR ELISA IC50
T2 construct: purchased R&D Systems 210-TA-020 (TNFα); 636-R1-025 (sTNF RI)
Experimental: The binding of α/β-peptides to TNFα to inhibit binding to TNFR was determined by competition ELISA. […] After immobilization, the plate was washed with PBS/0.05% TWEEN, blocked with 1% BSA in PBS for 2 hours, and then washed with PBS/0.05% TWEEN. Serial dilutions of soluble α/β-peptides in DMSO were prepared (final concentrations=0.04 nM-10 μM), and 10 μL of each of these solutions added to 240 μL of recombinant human TNFα (R&D Systems, 210-TA-020, final concentration=0.080 μg/mL) in PBS/0.05% TWEEN. The α/β-peptides were allowed to pre-incubate with TNFα for 3 hours and then 50 μL of each α/β-peptide/TNFα mixture was added to wells on the ELISA plate and incubated at room temperature for 1 hour. The plate was then washed with PBS/0.05% TWEEN and the presence of TNFα detected by adding 100 μL of a 1:500 dilution of Human TNFα Biotinylated Affinity Purified PAb (R&D Systems, BAF210) and incubating at room temperature for 1 hour. […] Plates were read during the time course of the reaction on a BioTek Synergy 2 microplate reader, reading A405. […] To compare the ability of each soluble α/β-peptide to inhibit the binding of TNFα to immobilized TNFR, IC50 values were calculated by fitting the ELISA absorbance data to a sigmoidal dose-response equation.

HER2 [3] = biological target: T3, HER2 (Homo sapiens, UniProt P04626); details: cited from earlier work
[4] = Half-life of Z-HER2 mimics (Table 16); type: in vitro ADME; details: conditions not given; read-out: half-life t1/2
HER2 [5] = biological target: T3, HER2; assay: Z-HER2 mimics binding, ELISA 3; details: read-out: ELISA 3 Ki calcd.

T2 sequence (P01375 77-233 limits assumed): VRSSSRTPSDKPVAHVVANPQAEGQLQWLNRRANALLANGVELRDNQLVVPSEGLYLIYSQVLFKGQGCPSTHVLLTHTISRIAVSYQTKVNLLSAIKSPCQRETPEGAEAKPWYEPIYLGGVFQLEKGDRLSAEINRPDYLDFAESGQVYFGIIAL

Compound: VDNKFNKEXHNZRAIEAALDPNLNDQQFHAKIWZIIXD [α/β-VEGF-1-linear]
binding to VEGF (in words) (VEGF): lack of binding; also recorded: essentially no binding

Compound: VDNKFNKEQHNARAIEAALDPNLNDQQFHAKIWSIIDD-NH2 [α-VEGF-1]
solubility in PBS at 75 μM (Aqueous solubility (PBS)): fully soluble
inhibition of VEGF-induced HUVEC proliferation (in words) [1]: does not show any inhibition
binding to VEGF (in words) (VEGF): does not show binding; also recorded: did not recover binding

Ki (VEGF; Table 5, early mimics, FP assay run once): > 50 µM
Compound: CC[C@H](C)[C@H](NC(=O)[C@H](C)NC(=O)[C@H]1CCC[C@@H]1NC(=O)[C@H](C)NC(=O)[C@H](CC(N)=O)NC(=O)[C@H](Cc1c[nH]cn1)NC(=O)[C@H]1CCC[C@@H]1NC(=O)[C@H](CCC(=O)O)NC(=O)[C@@H](N)CCCCN)C(=O)N[C@@H](CCC(=O)O)C(=O)N[C@H](C(=O)N[C@@H](C)C(=O)N[C@@H](CC(C)C)C(=O)N[C@@H](CC(C)C)C(=O)N1CCC[C@H]1C(=O)N[C@@H](CC(N)=O)C(=O)N[C@@H](CC(C)C)C(=O)N[C@@H](CC(N)=O)C(=O)N[C@@H](CC(=O)O)C(=O)N[C@@H](CCC(N)=O)C(=O)N[C@@H](CCC(N)=O)C(=O)N[C@@H](Cc1ccccc1)C(=O)N[C@@H](Cc1c[nH]cn1)C(=O)N[C@@H](C)C(=O)N[C@H]1CCC[C@@H]1C(=O)N[C@H](C(=O)N[C@@H](Cc1c[nH]c2ccccc12)C(=O)N[C@H]1CCC[C@@H]1C(=O)N[C@@H](CC(C)C)C(=O)N[C@H](C(=O)N[C@@H](CC(=O)O)C(=O)N[C@@H](CC(=O)O)C(=O)N1CCC[C@H]1C(=O)N[C@@H](CO)C(N)=O)[C@@H](C)CC)[C@@H](C)CC)[C@@H](C)CC [E4, KEXHNAXAIEIALLPNLNDQQFHAXIWXLIDDPS] (H-KE[X1]HNA[X1]AIEIALLPNLNDQQFHA[X1]IW[X1]LIDDPS-NH2)

IC50 [2]: 0.51 µM
Compound: CC[C@H](C)[C@H](NC(=O)[C@H](CCCNC(=N)N)NC(=O)[C@H](Cc1c[nH]c2ccccc12)NC(=O)CNC(=O)[C@H](CC(C)C)NC(=O)[C@H]1CCC[C@@H]1N)C(=O)NCC(=O)N[C@@H](CCC(=O)O)C(=O)NC(C)(C)C(=O)NCC(=O)N[C@H](C(=O)N[C@@H](CC(=O)O)C(=O)N1CCC[C@H]1C(=O)N[C@@H](CC(N)=O)C(=O)N[C@@H](CC(C)C)C(=O)N[C@@H](CC(N)=O)C(=O)N[C@@H](Cc1c[nH]cn1)C(=O)N[C@@H](CCC(N)=O)C(=O)N[C@@H](CCC(N)=O)C(=O)N[C@@H](Cc1ccccc1)C(=O)N[C@@H](CCCNC(=N)N)C(=O)NC(C)(C)C(=O)N[C@@H](CCCCN)C(=O)N[C@H](C(=O)N[C@@H](CC(C)C)C(=O)N[C@H]1CNC[C@@H]1C(=O)N[C@H](C(=O)N[C@@H](Cc1c[nH]c2ccccc12)C(=O)N[C@H]1CCC[C@@H]1C(N)=O)[C@@H](C)CC)[C@@H](C)CC)[C@@H](C)O [α/β-TNFα-16, XLGWRIGEAGTDPNLNHQQFRAKILZIWX-NH2] ({ACPC(1S,2S)}-LGWRIGE[Aib]GTDPNLNHQQFR[Aib]KIL[X2]IW-{NH(1S,2S-2-CONH2-cPent)}; N-terminus assumed)

Compound: VDNKFNKEMHNAYAIEIALLPNLNDQQFHAFIWSLIDD-NH2 [Z-VEGF (1-38)]
binding to VEGF (in words) (VEGF): shows no binding
binding to VEGF (in words) (VEGF; listed as Z-VEGF(1-38)): complete loss of binding

IC50 [2]: 1 µM
Compound: CC[C@H](C)[C@H](NC(=O)[C@H](CCCNC(=N)N)NC(=O)[C@H](Cc1c[nH]c2ccccc12)NC(=O)CNC(=O)[C@@H](N)CC(C)C)C(=O)NCC(=O)N[C@@H](CCC(=O)O)C(=O)NC(C)(C)C(=O)NCC(=O)N[C@H](C(=O)N[C@@H](CC(=O)O)C(=O)N1CCC[C@H]1C(=O)N[C@@H](CC(N)=O)C(=O)N[C@@H](CC(C)C)C(=O)N[C@@H](CC(N)=O)C(=O)N[C@@H](Cc1c[nH]cn1)C(=O)N[C@@H](CCC(N)=O)C(=O)N[C@@H](CCC(N)=O)C(=O)N[C@@H](Cc1ccccc1)C(=O)N[C@@H](CCCNC(=N)N)C(=O)NC(C)(C)C(=O)N[C@@H](CCCCN)C(=O)N[C@H](C(=O)N[C@@H](CC(C)C)C(=O)N[C@H]1CNC[C@@H]1C(=O)N[C@H](C(=O)N[C@@H](Cc1c[nH]c2ccccc12)C(=O)N[C@H]1CCC[C@@H]1C(N)=O)[C@@H](C)CC)[C@@H](C)CC)[C@@H](C)O [α/β-TNFα-14, LGWRIGEAGTDPNLNHQQFRAKILZIWX-NH2] (H-LGWRIGE[Aib]GTDPNLNHQQFR[Aib]KIL[X2]IW-{NH(1S,2S-2-CONH2-cPent)}; N-terminus assumed)

Compound: 82 (VENKFNKEMRNAYWEIALLPNLNNQQKRAFIRSLYDDPG; listed as Homo sapiens) [compound 82]
reported Kd (HER2 [3]): no blinding

half-life [4]: 4.33 h
Ki (HER2 [5]): 0.033 µM
Compound: CC[C@H](C)[C@H](NC(=O)C1CNCC1NC(=O)[C@H](CCCNC(=N)N)NC(=O)[C@@H](NC(=O)[C@H](CCCCN)NC(=O)C(C)(C)NC(=O)[C@H](CCCNC(=N)N)NC(=O)[C@H](CCCCN)NC(=O)[C@H](CCC(N)=O)NC(=O)C(C)(C)NC(=O)[C@H](CC(N)=O)NC(=O)[C@H](CC(N)=O)NC(=O)[C@H](CC(C)C)NC(=O)[C@H](CC(N)=O)NC(=O)[C@@H]1CCCN1C(=O)[C@H](CC(=O)O)NC(=O)[C@H](CC(C)C)NC(=O)[C@H](C)NC(=O)C(C)(C)NC(=O)[C@H](CCC(=O)O)NC(=O)[C@H](Cc1c[nH]c2ccccc12)NC(=O)[C@H](Cc1ccc(O)cc1)NC(=O)[C@H](CCCNC(=N)N)NC(=O)C1CNCC1NC(=O)[C@H](CCCNC(=N)N)NC(=O)[C@H](CCSC)NC(=O)[C@H]1CCC[C@@H]1NC(=O)[C@H](CCCCN)NC(=O)[C@H](CC(N)=O)NC(=O)[C@@H](N)Cc1ccccc1)[C@@H](C)CC)C(=O)N[C@@H](Cc1ccc(O)cc1)C(=O)N[C@@H](CC(=O)O)C(=O)N[C@@H](CC(=O)O)C(=O)N1CCC[C@H]1C(=O)N[C@@H](CO)C(N)=O (stereo partly shown) [compound 97] (H-FNK[X1]MR[ξ(4-Aminopyrrolidine-3-CO)]RYWE[Aib]ALDPNLNN[Aib]QKR[Aib]KIR[ξ(4-Aminopyrrolidine-3-CO)]IYDDPS-NH2)

Compound: KEMHNAYAIEIALLPNLNDQQFHAFIWSLIDDPS-NH2 [Z-VEGF (7-40)]
binding to VEGF (in words) (VEGF): showed no binding
